Test results from PMC9863764, “Roles of Human Liver Cytochrome P450 Enzymes in Tenatoprazole Metabolism” (Pharmaceutics, 2022).
“And” between values parts separate entries of the source, which are not always exact repeats. Equal entries are not always repeated.

Columns and labels:
Assay type in all cases: in vitro ADME
human CYP2C19 = molecular target: T1, human CYP2C19 (Homo sapiens, UniProt P33261); test: Steady-state kinetics of tenatoprazole oxidation by recombinant CYP2C19
T1 construct: made in house; host or cells: Escherichia coli (membrane fractions)
T1 sequence (P33261 whole entry): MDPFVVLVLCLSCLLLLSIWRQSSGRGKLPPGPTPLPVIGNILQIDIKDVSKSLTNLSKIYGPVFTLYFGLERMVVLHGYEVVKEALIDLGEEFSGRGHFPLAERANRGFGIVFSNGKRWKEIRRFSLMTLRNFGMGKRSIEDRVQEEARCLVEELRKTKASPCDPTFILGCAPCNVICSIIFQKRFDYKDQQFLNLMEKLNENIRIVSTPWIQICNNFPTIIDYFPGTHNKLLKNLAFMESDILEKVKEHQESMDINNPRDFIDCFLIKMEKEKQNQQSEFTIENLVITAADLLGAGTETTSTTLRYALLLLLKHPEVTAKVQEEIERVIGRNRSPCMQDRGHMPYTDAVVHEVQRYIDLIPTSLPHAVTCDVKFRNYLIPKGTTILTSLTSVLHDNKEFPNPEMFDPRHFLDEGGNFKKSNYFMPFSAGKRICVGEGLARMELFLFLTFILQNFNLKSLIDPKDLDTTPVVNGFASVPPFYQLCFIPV
Protocol: Pooled liver microsomes from human samples were obtained from ThermoFisher Scientific (Waltham, MA, USA). […] Membrane fractions expressing both P450 and CPR of E. coli were prepared as described previously and were used for the catalytic activity assays. […] The reaction was started by adding NGS and the incubation was continued for the indicated time at 37 °C. Incubation was then stopped by adding ice-chilled ethyl acetate (0.50 mL) and omeprazole (IS) was added to a final concentration of 20 μM. […] Phenomenex, Torrance, CA, USA). The products formed were analyzed by HPLC at […]. […] The kinetic parameters (kcat and Km) were determined by using a Michaelis-Menten nonlinear regression analysis with GraphPad Prism (GraphPad Software, San Diego, CA, USA).

CYP1B1 = molecular target: T2, CYP1B1 (Homo sapiens, UniProt Q16678); test: Tenatoprazole oxidation by recombinant CYP1B1; settings: substrate tenatoprazole 0.10 mM, 0.20 μM CYP1B1; no apparent formation
T2 construct: made in house; host or cells: Escherichia coli (membrane fractions)
T2 sequence (Q16678 1-543): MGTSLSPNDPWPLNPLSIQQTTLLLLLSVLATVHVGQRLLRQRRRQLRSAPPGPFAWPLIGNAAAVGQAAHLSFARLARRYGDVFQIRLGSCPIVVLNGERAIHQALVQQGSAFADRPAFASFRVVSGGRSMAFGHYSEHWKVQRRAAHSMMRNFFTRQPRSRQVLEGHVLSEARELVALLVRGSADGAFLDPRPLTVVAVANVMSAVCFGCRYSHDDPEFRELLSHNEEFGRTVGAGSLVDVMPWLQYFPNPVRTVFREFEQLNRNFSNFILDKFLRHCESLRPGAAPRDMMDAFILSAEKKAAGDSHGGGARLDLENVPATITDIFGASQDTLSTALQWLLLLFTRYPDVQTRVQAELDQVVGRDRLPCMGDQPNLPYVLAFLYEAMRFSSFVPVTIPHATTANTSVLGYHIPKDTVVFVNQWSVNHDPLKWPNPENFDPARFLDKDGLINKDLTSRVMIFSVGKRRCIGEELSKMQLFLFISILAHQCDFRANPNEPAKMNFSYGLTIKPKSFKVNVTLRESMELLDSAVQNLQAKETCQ
Protocol: (§1) Pooled liver microsomes from human samples were obtained from ThermoFisher Scientific (Waltham, MA, USA). Recombinant human P450s were heterologously expressed in Escherichia coli with a pCW vector containing human P450 cDNA (CYP 3A4, 2C9, 2C19, 1A2, 1B1, 2E1, 2D6, and 2A6) and rat NADPH-P450 reductase (CPR). Membrane fractions expressing both P450 and CPR of E. coli were prepared as described previously and were used for the catalytic activity assays.
(§2) The reaction mixture included 0.20 μM P450, 0.40 μM CPR, and tenatoprazole (0.10 mM) in 0.25 mL of 0.10 M potassium phosphate buffer (pH 7.4). The reaction was started by adding NGS and the incubation was continued for the indicated time at 37 °C. Incubation was then stopped by adding ice-chilled ethyl acetate (0.50 mL) and omeprazole (IS) was added to a final concentration of 20 μM. The mixtures were vortexed for 2 min, centrifuged at 1000× g for 20 min, and then the organic layer was taken for drying under nitrogen gas stream. The residues were dissolved in 180 μL of HPLC mobile phase and 30 μL was injected onto a Gemini C18 column (4.6 × 150 mm, 5 μm; Phenomenex, Torrance, CA, USA). The products formed were analyzed by HPLC at A302. The HPLC profile of the authentic chemicals (i.e., tenatoprazole, tenatoprazole sulfide, and their metabolites) were used to identify the major metabolites of tenatoprazole and tenatoprazole sulfide produced by the recombinant P450s.
(§3) Figure S6. HPLC analyses of the products derived from the oxidation of tenatoprazole catalyzed by recombinant human P450s. The reaction mixture included 0.20 μM P450, 0.40 μM CPR, and 0.10 mM tenatoprazole in 0.25 mL of potassium phosphate buffer (0.10 M, pH 7.4). The reaction was started by adding an NGS at 37 °C for 60 min. (A) CYP1A2; (B) CYP1B1; (C) CYP2A6; (D) CYP2C9; (E) CYP2D6; (F) CYP2E1. The arrows with solid and broken lines indicate the retention times of 5’-OH tenatoprazole (6.6 min) and 5’-OH tenatoprazole sulfide (8.4 min), respectively.
(§4) (1 picture or pasted object on this page, not shown here)

CYP2D6 = molecular target: T3, CYP2D6 (Homo sapiens, UniProt P10635); test: Tenatoprazole oxidation by recombinant CYP2D6; settings: substrate tenatoprazole 0.10 mM, 0.20 μM CYP2D6
T3 construct: made in house; host or cells: Escherichia coli (membrane fractions)
T3 sequence (P10635 whole entry): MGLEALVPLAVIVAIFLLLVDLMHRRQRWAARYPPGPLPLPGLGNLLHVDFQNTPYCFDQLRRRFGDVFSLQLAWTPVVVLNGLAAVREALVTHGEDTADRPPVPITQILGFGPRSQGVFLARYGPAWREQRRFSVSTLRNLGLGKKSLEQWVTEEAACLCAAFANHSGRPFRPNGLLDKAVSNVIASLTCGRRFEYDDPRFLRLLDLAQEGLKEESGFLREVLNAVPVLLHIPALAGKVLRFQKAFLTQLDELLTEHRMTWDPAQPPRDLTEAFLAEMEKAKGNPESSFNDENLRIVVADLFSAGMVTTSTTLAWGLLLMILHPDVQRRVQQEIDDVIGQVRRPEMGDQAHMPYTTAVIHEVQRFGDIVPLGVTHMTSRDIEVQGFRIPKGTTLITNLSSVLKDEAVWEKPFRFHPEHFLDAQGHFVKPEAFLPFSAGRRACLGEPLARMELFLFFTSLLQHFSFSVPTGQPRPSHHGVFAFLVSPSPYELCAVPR
Protocol: as §1
as §2, with “The HPLC profile of the authentic chemicals (i.e., tenatoprazole, tenatoprazole sulfide, and their metabolites) were used to identify the major metabolites of tenatoprazole and tenatoprazole sulfide produced by the recombinant P450s.” left out

CYP2C9 = molecular target: T4, CYP2C9 (Homo sapiens, UniProt P11712); test: Tenatoprazole oxidation by recombinant CYP2C9; settings: substrate tenatoprazole 0.10 mM, 0.20 μM CYP2C9
T4 construct: made in house; host or cells: Escherichia coli (membrane fractions)
T4 sequence (P11712 whole entry): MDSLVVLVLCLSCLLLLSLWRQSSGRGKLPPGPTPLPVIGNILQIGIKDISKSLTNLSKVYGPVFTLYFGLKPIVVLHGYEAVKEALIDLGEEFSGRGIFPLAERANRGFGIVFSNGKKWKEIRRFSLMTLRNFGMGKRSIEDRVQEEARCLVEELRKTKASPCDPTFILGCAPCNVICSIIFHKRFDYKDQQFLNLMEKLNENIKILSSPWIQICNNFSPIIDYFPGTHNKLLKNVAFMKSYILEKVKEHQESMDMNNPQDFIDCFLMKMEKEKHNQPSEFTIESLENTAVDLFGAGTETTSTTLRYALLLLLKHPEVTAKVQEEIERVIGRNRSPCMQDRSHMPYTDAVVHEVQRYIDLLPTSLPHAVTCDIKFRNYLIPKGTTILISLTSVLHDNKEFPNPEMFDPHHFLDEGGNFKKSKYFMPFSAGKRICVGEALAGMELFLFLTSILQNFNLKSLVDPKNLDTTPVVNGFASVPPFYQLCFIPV
Protocol: as §1
as §2, with “The HPLC profile of the authentic chemicals (i.e., tenatoprazole, tenatoprazole sulfide, and their metabolites) were used to identify the major metabolites of tenatoprazole and tenatoprazole sulfide produced by the recombinant P450s.” left out

CYP2A6 = molecular target: T5, CYP2A6 (Homo sapiens, UniProt P11509); test: Tenatoprazole oxidation by recombinant CYP2A6; settings: substrate tenatoprazole 0.10 mM, 0.20 μM CYP2A6; no apparent formation
T5 construct: made in house; host or cells: Escherichia coli (membrane fractions)
T5 sequence (P11509 1-494): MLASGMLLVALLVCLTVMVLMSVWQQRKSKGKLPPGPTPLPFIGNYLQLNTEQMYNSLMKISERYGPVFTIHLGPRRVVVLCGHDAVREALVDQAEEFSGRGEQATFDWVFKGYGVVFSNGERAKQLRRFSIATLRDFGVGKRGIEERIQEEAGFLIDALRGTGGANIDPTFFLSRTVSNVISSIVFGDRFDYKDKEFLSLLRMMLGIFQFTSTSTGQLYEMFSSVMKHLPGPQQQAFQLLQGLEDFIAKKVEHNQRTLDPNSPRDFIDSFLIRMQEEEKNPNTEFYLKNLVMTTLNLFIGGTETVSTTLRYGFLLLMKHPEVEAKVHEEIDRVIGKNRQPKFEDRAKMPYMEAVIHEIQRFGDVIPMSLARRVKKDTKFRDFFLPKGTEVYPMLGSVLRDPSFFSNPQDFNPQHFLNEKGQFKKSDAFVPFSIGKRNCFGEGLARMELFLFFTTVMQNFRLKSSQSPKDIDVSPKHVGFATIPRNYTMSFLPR
Protocol: as §1, §2, §3, §4

SMILES | fold higher catalytic efficiency of CYP2C19 than CYP3A4 (human CYP2C19; 5′-OH tenatoprazole formation from tenatoprazole) [fold] | kcat of product formation (human CYP2C19; substrate tenatoprazole (1–500 μM), recombinant CYP2C19 0.20 μM, 37 °C, 5 min, label = product formed) | formation rate of metabolite (CYP1B1) | formation rate of metabolite (CYP2D6) [min⁻¹] | formation rate of metabolite (CYP2C9) [min⁻¹] | formation rate of metabolite (CYP2A6)
COc1ccc2[nH]c([S+]([O-])Cc3ncc(CO)c(OC)c3C)nc2n1 (centres unmarked) [5′-OH tenatoprazole, 5′-hydroxy tenatoprazole] | 63 | 0.0667 s⁻¹ and 0.0667 ± 0.0033 s⁻¹ | < 0.05 nmol product/min/nmol P450 | 0.1 | 0.1 | < 0.05 nmol product/min/nmol P450
COc1ccc2[nH]c(S(=O)(=O)Cc3ncc(C)c(OC)c3C)nc2n1 [tenatoprazole sulfone] |  |  | < 0.05 nmol product/min/nmol P450 |  |  | < 0.05 nmol product/min/nmol P450
